# Assays:
# [1] = target: T1, human cathepsin F (Homo sapiens, UniProt Q9UBX1); assay: Cathepsin F assay (hCat F); format: biochemical; conditions: human cathepsin F 10 nM, Z-Phe-Arg-AMC 8 μM, pH 5.5, 15 min preincubation; read-out: hCat F IP
# T1 sequence (Q9UBX1 271-484): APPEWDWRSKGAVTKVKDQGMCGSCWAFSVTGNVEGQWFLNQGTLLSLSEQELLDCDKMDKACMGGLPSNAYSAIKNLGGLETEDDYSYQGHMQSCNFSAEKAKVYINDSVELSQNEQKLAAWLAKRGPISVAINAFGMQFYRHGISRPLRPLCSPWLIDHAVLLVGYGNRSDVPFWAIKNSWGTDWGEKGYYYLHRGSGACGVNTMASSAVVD
# Procedure: Cathepsin F assay (hCat F)
# (§1) Serial dilutions (⅓) from 500 μM down to 0.025 μM of test compounds were prepared in dimethyl sulfoxide (DMSO). Then 0.5 μL of DMSO from each dilution were added to 18.75 μL of assay buffer (MES, 50 mM (pH 5.5); EDTA, 2.5 mM; DTT, 2.5 mM and 10% DMSO) containing human cathepsin F (10 nM) in assay buffer solution. The assay solutions were mixed for 5-10 seconds on a shaker plate and incubated for 15 minutes at room temperature. Z-Phe-Arg-AMC (8 μM) in 6.25 μL of assay buffer was added to the assay solutions. Hydrolysis of the coumarin leaving group (AMC) was followed by spectrofluorometry (Exp, =360 nm; EmX=460 nm) for 20 minutes. Percent of inhibition were calculated by fitting experimental values to standard mathematical model for dose response curve.
# [2] = target: human cathepsin K (UniProt P43236); assay: Cathepsin K Assay (hrbCat K); format: biochemical; conditions: human cathepsin K 0.4 nM, Z-Leu-Arg-AMC 8 μM, pH 5.5, 15 min preincubation; read-out: hrbCat K IP
# Procedure: Cathepsin K Assay (hrbCat K)
# as §1, with “K (0.4” for “F (10”, “Z-Leu-Arg-AMC” for “Z-Phe-Arg-AMC”, “(Exλ=360” for “(Exp, =360”, “Emλ=460” for “EmX=460”, “30” for “20”
SMILES,IC50 [1],IC50 [2]
"N#CC1(NC(=O)[C@@H]2CCCC[C@H]2c2oc(-c3cccc(Cl)c3F)nc2-c2ccc(N3CCS(=O)(=O)CC3)cc2)CC1 [Example 6, (1R,2R)-2-(2-(3-chloro-2-fluorophenyl)-4-(4-(1,1-dioxidothiomorpholino)phenyl)oxazol-5-yl)-N-(1-cyanocyclopropyl)cyclohexanecarboxamide]",0.631 µM,0.00048 µM
"N#CC1(NC(=O)[C@@H]2CCCC[C@H]2c2oc(-c3ccc(F)cc3)nc2-c2ccc(N3CCS(=O)(=O)CC3)cc2)CC1 [Example 7, (1R,2R)—N-(1-Cyanocyclopropyl)-2-{4-[4-(1,1-dioxo-1λ^6-thiomorpholin-4-yl)phenyl]-2-(4-fluorophenyl)-1,3-oxazol-5-yl}cyclohexanecarboxamide]",0.84 µM,0.00149 µM
"CC(C)(C)c1nc(-c2ccc(N3CCS(=O)(=O)CC3)cc2)c([C@@H]2CCCC[C@H]2C(=O)NC2(C#N)CC2)s1 [Example 10, (1R,2R)-2-(2-(tert-butyl)-4-(4-(1,1-dioxidothiomorpholino)phenyl)thiazol-5-yl)-N-(1-cyanocyclopropyl)cyclohexanecarboxamide]",1.44 µM,0.00165 µM
"CC(C)(C)c1nc(-c2ccc(N3CCS(=O)(=O)CC3)cc2)c([C@@H]2CCCC[C@H]2C(=O)NC2(C#N)CC2)o1 [Example 11, (1R,2R)-2-(2-(tert-butyl)-4-(4-(1,1-dioxidothiomorpholino)phenyl)oxazol-5-yl)-N-(1-cyanocyclopropyl) cyclohexanecarboxamide]",0.681 µM,0.00069 µM
"Cc1nc(-c2ccc(N3CCS(=O)(=O)CC3)cc2)c([C@@H]2CCC(F)(F)C[C@H]2C(=O)NCC#N)o1 [Example 12, (1R,2R)-N-(cyanomethyl)-2-(4-(4-(1,1-dioxidothiomorpholino)phenyl)-2-methyloxazol-5-yl)-5,5-difluorocyclohexane-carboxamide]",0.327 µM,0.00029 µM
"N#CC1(NC(=O)[C@@H]2CCCC[C@H]2c2oc(C(F)(F)F)nc2-c2ccc(N3CCS(=O)(=O)CC3)cc2)CC1 [Example 13, (1R,2R)-N-(1-cyanocyclopropyl)-2-(4-(4-(1,1-dioxidothiomorpholino)phenyl)-2-(trifluoromethyl)oxazol-5-yl)cyclohexanecarboxamide]",0.628 µM,0.00046 µM
"Cc1nc(-c2ccc(N3CCS(=O)(=O)CC3)cc2)c([C@@H]2CCCC[C@H]2C(=O)NC2(C#N)CC2)o1 [Example 14, (1R,2R)-N-(1-cyanocyclopropyl)-2-(4-(4-(1,1-dioxidothiomorpholino)phenyl)-2-methyloxazol-5-yl)cyclohexanecarboxamide]",1.33 µM,0.00108 µM
"N#CC1(NC(=O)[C@@H]2CCCC[C@H]2c2oc(CC(F)(F)F)nc2-c2ccc(N3CCS(=O)(=O)CC3)cc2)CC1 [Example 15, (1R,2R)-N-(1-cyanocyclopropyl)-2-(4-(4-(1,1-dioxidothiomorpholino)phenyl)-2-(2,2,2-trifluoroethyl)oxazol-5-yl)cyclohexanecarboxamide]",0.64 µM,0.0018 µM
"N#CC1(NC(=O)[C@@H]2CC(F)(F)CC[C@H]2c2oc(CC(F)(F)F)nc2-c2ccc(N3CCS(=O)(=O)CC3)cc2)CC1 [Example 16, (1R,2R)-N-(1-cyanocyclopropyl)-2-(4-(4-(1,1-dioxidothiomorpholino)phenyl)-2-(2,2,2-trifluoroethyl)oxazol-5-yl)-5,5-difluorocyclohexane-carboxamide]",0.209 µM,0.00061 µM
"Cc1nc(-c2ccc(N3CCS(=O)(=O)CC3)cc2)c([C@@H]2CCC(F)(F)C[C@H]2C(=O)NC2(C#N)CC2)o1 [Example 18, (1R,2R)-N-(1-cyanocyclopropyl)-2-(4-(4-(1,1-dioxidothiomorpholino)phenyl)-2-methyloxazol-5-yl)-5,5-difluorocyclohexane-carboxamide]",0.178 µM,0.00048 µM
"CC(C)(C)c1nc(-c2ccc(N3CCS(=O)(=O)CC3)cc2)c([C@@H]2CCC(F)(F)C[C@H]2C(=O)NC2(C#N)CC2)o1 [Example 19, (1R,2R)-2-(2-(tert-butyl)-4-(4-(1,1-dioxidothiomorpholino)phenyl)oxazol-5-yl)-N-(1-cyanocyclopropyl)-5,5-difluorocyclohexane-carboxamide]",0.081 µM,0.00054 µM
"N#CC1(NC(=O)[C@@H]2CC(F)(F)CC[C@H]2c2oc(-c3ccc(F)cc3)nc2-c2ccc(N3CCS(=O)(=O)CC3)cc2)CC1 [Example 20, (1R,2R)-N-(1-cyanocyclopropyl)-2-(4-(4-(1,1-dioxidothiomorpholino)phenyl)-2-(4-fluorophenyl)oxazol-5-yl)-5,5-difluorocyclohexane-carboxamide]",0.071 µM,0.00028 µM
"Cc1nc(-c2ccc(C(=O)NC3(C#N)CC3)cc2)c([C@@H]2CCCC[C@H]2C(=O)NC2(C#N)CC2)o1 [Example 21, N-(1-cyanocyclopropyl)-4-(5-((1R,2R)-2-((1-cyanocyclopropyl)carbamoyl)cyclohexyl)-2-methyloxazol-4-yl)benzamide]",≥ 10 µM,0.0619 µM
"Cc1nc(-c2ccc(C(=O)N3CCOCC3)cc2)c([C@@H]2CCCC[C@H]2C(=O)NC2(C#N)CC2)o1 [Example 22, (1R,2R)-N-(1-cyanocyclopropyl)-2-(2-methyl-4-(4-(morpholine-4-carbonyl)phenyl)oxazol-5-yl)cyclohexanecarboxamide]",6.16 µM,0.00509 µM
"CS(=O)(=O)C1CN(c2ccc(-c3nc(C(F)(F)C(F)(F)F)oc3[C@@H]3CCCC[C@H]3C(=O)NC3(C#N)CC3)cc2)C1 [Example 23, (1R,2R)-N-(1-cyanocyclopropyl)-2-(4-(4-(3-(methylsulfonyl)azetidin-1-yl)phenyl)-2-(perfluoroethyl)oxazol-5-yl)cyclohexanecarboxamide]",0.383 µM,0.00062 µM

# Results, then the molecule that gave them:
IC50 [1],IC50 [2],SMILES
0.181 µM,0.00068 µM,"N#CC1(NC(=O)[C@@H]2CC(F)(F)CC[C@H]2c2oc(-c3ccc(F)cc3)nc2-c2ccc(C(=O)N3CCOCC3)cc2)CC1 [Example 24, (1R,2R)-N-(1-cyanocyclopropyl)-5,5-difluoro-2-(2-(4-fluorophenyl)-4-(4-(morpholine-4-carbonyl)phenyl)oxazol-5-yl)cyclohexanecarboxamide]"
0.447 µM,0.00066 µM,CS(=O)(=O)C1CN(c2ccc(-c3nc(C(F)(F)F)oc3[C@@H]3CCCC[C@H]3C(=O)NC3(C#N)CC3)cc2)C1 [Example 25]
2.96 µM,0.00364 µM,"N#CC1(NC(=O)[C@@H]2CCCC[C@H]2c2oc(C(F)(F)C(F)(F)F)nc2-c2ccc(C(=O)N3CCOCC3)cc2)CC1 [Example 26, (1R,2R)-N-(1-cyanocyclopropyl)-2-(4-(4-(morpholine-4-carbonyl)phenyl)-2-(perfluoroethyl)oxazol-5-yl)cyclohexanecarboxamide]"
0.681 µM,0.00037 µM,"N#CC1(NC(=O)[C@@H]2CCCC[C@H]2c2oc(-c3ccc(F)cc3F)nc2-c2ccc(N3CCS(=O)(=O)CC3)cc2)CC1 [Example 27, (1R,2R)-N-(1-cyanocyclopropyl)-2-(2-(2,4-difluorophenyl)-4-(4-(1,1-dioxidothiomorpholino)phenyl)oxazol-5-yl)cyclohexanecarboxamide]"
1.36 µM,0.00126 µM,"N#CC1(NC(=O)[C@@H]2CCCC[C@H]2c2oc(-c3ccccn3)nc2-c2ccc(N3CCS(=O)(=O)CC3)cc2)CC1 [Example 28, (1R,2R)-N-(1-cyanocyclopropyl)-2-(4-(4-(1,1-dioxidothiomorpholino)phenyl)-2-(pyridin-2-yl)oxazol-5-yl)cyclohexanecarboxamide]"
0.565 µM,0.00048 µM,"N#CC1(NC(=O)[C@@H]2CCCC[C@H]2c2oc(-c3cccnc3)nc2-c2ccc(N3CCS(=O)(=O)CC3)cc2)CC1 [Example 29, (1R,2R)-N-(1-cyanocyclopropyl)-2-(4-(4-(1,1-dioxidothiomorpholino)phenyl)-2-(pyridin-3-yl)oxazol-5-yl)cyclohexanecarboxamide]"
0.757 µM,0.00043 µM,"N#CC1(NC(=O)[C@@H]2CCCC[C@H]2c2oc(-c3ccncc3F)nc2-c2ccc(N3CCS(=O)(=O)CC3)cc2)CC1 [Example 30, (1R,2R)-N-(1-cyanocyclopropyl)-2-(4-(4-(1,1-dioxidothiomorpholino)phenyl)-2-(3-fluoropyridin-4-yl)oxazol-5-yl)cyclohcxanecarboxamide]"
